In PMC10341893, “Motifs in Natural Products as Useful Scaffolds to Obtain Novel Benzo[d]imidazole-Based Cannabinoid Type 2 (CB2) Receptor Agonists” (International Journal of Molecular Sciences, 2023):
Read-outs that look alike come from different tables or passages of the source.

What was measured:
human recombinant CB1R = molecular target: T1, human recombinant CB1R (Homo sapiens, UniProt P21554); assay: CB1 receptor binding assay ([3H]-CP-55,940 displacement, HEK cell membranes); details: [3H]-CP-55,940 displacement; means ± SD of 3 independent experiments in duplicate; read-out: Ki CB1
T1 construct: expressed in transfected cells; host or cells: HEK cells
T1 sequence (P21554 whole entry): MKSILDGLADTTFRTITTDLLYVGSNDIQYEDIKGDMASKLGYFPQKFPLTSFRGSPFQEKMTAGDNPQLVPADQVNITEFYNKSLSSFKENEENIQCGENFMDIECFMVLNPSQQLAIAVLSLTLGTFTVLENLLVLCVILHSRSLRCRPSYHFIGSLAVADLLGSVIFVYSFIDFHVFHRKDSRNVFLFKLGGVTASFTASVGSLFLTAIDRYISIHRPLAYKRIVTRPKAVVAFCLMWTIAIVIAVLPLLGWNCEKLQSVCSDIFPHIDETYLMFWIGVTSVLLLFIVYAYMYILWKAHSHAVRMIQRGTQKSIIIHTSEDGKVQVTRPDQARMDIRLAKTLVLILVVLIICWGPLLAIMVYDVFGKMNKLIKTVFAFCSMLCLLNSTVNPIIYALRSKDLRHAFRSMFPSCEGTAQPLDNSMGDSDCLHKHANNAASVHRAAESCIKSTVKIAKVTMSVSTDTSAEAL
Method: (§1) To assess the compound selectivity between CB1 and CB2 receptors, binding constants were determined through a radioligand displacement assay by testing concentration–response curves for compounds 5, 6, 16, 19, and 22. As shown in Figure 4 and summarized in Table 4, three of the tested compounds (5, 19, and 22) presented moderate binding affinity in a low micromolar range to both CB1 and CB2 receptors.
(§2) CB1 and CB2 receptor binding assays were performed exactly as previously described. […] Displacement curves were performed by incubating [^3H]-CP-55 940 (90 min, 30 °C) with increasing concentrations of compounds (10 nM−10 μM). Ki values were calculated by applying the Cheng−Prusoff equation to the IC50 values (obtained by GraphPad, Prism Software 9.5) for the displacement of the bound radioligand by compounds.

hCB2 receptor [1] = molecular target: T2, hCB2 receptor (Homo sapiens, UniProt P34972); assay: CB2 receptor binding assay ([3H]-CP-55,940 displacement, HEK cell membranes); set-up: expressed in transfected cells; host or cells: HEK cells; details: [3H]-CP-55,940 displacement; means ± SD of 3 independent experiments in duplicate; read-out: Ki CB2
T2 sequence (P34972 whole entry): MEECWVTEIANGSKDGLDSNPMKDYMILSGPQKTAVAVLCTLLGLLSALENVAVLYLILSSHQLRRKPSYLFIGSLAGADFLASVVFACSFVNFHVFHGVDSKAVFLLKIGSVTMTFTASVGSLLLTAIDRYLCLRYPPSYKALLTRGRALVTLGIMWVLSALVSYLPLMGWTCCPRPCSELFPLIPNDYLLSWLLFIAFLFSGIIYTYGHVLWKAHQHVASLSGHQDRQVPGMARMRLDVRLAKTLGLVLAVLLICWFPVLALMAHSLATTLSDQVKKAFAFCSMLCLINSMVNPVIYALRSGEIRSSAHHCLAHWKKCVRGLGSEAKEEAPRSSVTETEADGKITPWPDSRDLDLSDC
Method: as §1, §2

HEK-293 cells = assay: Neutral red uptake assay, HEK-293; format: cell-based; details: Homo sapiens, HEK293
Method: (§3) Compound 6 was tested through a neutral red uptake assay, and cell viability was measured. Neutral red consists of a cationic dye that accumulates in lysosomes. Uptake of neutral red depends on a viable cell’s capacity to maintain acidic pH in the interior of lysosomes.
(§4) MCF-7 and HEK-293 cell lines were maintained at 37 °C in a humidified atmosphere containing 5% CO2. MCF-7 was grown in Roswell Park Memorial Institute (RPMI) 1640 and HEK-293 was grown in Dulbecco’s modified Eagle medium and Ham’s F-12 medium (DMEM/F12). All media was supplemented with 10% fetal bovine serum, penicillin (100 U/mL), streptomycin ([…]), and non-essential amino acids MEM 1×.
(§5) Cells were seeded in 100 μL of media at a density of 10^4 cells/well in 96-well microtiter plates. Solutions of compounds were previously prepared in DMSO, and 1 μL of the corresponding solution was added to each well. The final volume of each well was adjusted to 200 μL. After 72 h of incubation, culture media were removed, and 100 μL of 10 μg/mL neutral red solution prepared in culture media was added to each well and incubated for 2 h at 37 °C in a humidified atmosphere containing 5% CO2. […] The plate was placed for 15 min in a shaker, and fluorescence was measured using Cytation 5 apparatus (Biotek, Winooski, VT, USA) at 530/645 nm excitation/emission wavelengths.

MCF-7 cells = assay: Neutral red uptake assay, MCF-7; format: cell-based; details: Homo sapiens, MCF7, 72 h incubation, triplicate, read-out: IC50 Viability
Method: as §3, §4, §5

hCB2 receptor [2] = molecular target: T2, hCB2 receptor; assay: cAMP accumulation assay (forskolin-stimulated, CHO cells expressing hCB2); format: cell-based
Method: Compounds were further characterized through in vitro functional assays by measuring the variation in forskolin-induced cAMP accumulation (Eurofins Cerep services). The tested compounds diminished the accumulation of cyclic AMP, indicating activity as agonists (Figure 3).
In vitro pharmacology assay for human CB2 agonist effect in CHO cells was performed by Eurofins Cerep (Celle-Lévescault, France). Five compounds were tested at several concentrations for EC50 determination. […] CHO cells stably expressing hCB2 receptor were used to determine agonist effect of compounds, based on the measurement of cAMP level. Assay protocol is adapted from Felder et al..

hCB2 receptor [3] = molecular target: T2, hCB2 receptor; assay: Single-dose radioligand displacement assay ([3H]WIN55212-2); format: binding; set-up: host or cells: CHO cells; details: membranes from recombinant CHO cells expressing human CB2, duplicate
Method: To assess ligand binding to CB2 receptors, radioligand displacement assay at a single dose (10 μM) was performed in membranes obtained from recombinant CHO cells expressing human CB2 receptors (Eurofins Cerep SA, France). Out of 26 compounds, more than 50% of the molecules presented >50% displacement, while 20% of the compounds (5, 6, 16, 19, 22) presented >80% displacement of radioligand binding at a 10 μM dose. Compounds 5, 6, 16, 19, and 22 were further tested for CB2 receptor activation (agonist activity, see below) and CB2/CB1 selectivity.
All membrane preparations for these studies were generated at Cerep Inc. according to standard protocols. Duplicate determinations were performed for each test compound. Compounds were dissolved in DMSO to generate a stock solution. Radioligand binding methods were adapted from Munro et al..

CCn1c(OC2CC(C)CCC2C(C)C)nc2ccccc21 (stereo not drawn) [Compound 6, 1-ethyl-2-((2-isopropyl-5-methylcyclohexyl)oxy)-1H-benzo[d]imidazole] was tested, and the Ki (human recombinant CB1R) was > 10 µM, the Ki (hCB2 receptor [1]) was 0.44 ± 0.1 µM and the IC50 (HEK-293 cells; HEK-293, 72 h incubation, triplicate, read-out: IC50 Viability) was 30 µM. For the same compound, the IC50 (HEK-293 cells; range over HEK-293 and MCF-7 cells, read-out: IC50 of toxicity) was 30 to 38 µM, the IC50 (MCF-7 cells) was 38 µM and the EC50 (hCB2 receptor [2]; recombinant CHO cells expressing hCB2, duplicate, read-out: EC50, inhibition of forskolin-stimulated cAMP accumulation) was 0.00336 µM. For the same compound, the “agonist activity at CB2 (cAMP accumulation)” value (hCB2 receptor [2]; recombinant cells expressing CB2 receptors) was “agonist activity was confirmed”, the “Inhibition (%) of [3H]WIN55212-2 specific binding” value (hCB2 receptor [3]; 10 µM single dose) was 89% and the inhibition at 10 µM (hCB2 receptor [3]; read-out: Inhibition (%) of [3H]WIN55212-2 specific binding, 10 µM single dose) was > 80%.
